The text below walks through data of BindingDB's records for PubMed 32092586 (Zhengzhou University, 2020).

For the assay, the target named is Ubiquitin carboxyl-terminal hydrolase 7 (Homo sapiens, UniProt Q93009). As to the kind of experiment: Inhibition of human USP7 using Ub-AMC as substrate.
Ubiquitin carboxyl-terminal hydrolase 7, sequence (Q93009 whole entry): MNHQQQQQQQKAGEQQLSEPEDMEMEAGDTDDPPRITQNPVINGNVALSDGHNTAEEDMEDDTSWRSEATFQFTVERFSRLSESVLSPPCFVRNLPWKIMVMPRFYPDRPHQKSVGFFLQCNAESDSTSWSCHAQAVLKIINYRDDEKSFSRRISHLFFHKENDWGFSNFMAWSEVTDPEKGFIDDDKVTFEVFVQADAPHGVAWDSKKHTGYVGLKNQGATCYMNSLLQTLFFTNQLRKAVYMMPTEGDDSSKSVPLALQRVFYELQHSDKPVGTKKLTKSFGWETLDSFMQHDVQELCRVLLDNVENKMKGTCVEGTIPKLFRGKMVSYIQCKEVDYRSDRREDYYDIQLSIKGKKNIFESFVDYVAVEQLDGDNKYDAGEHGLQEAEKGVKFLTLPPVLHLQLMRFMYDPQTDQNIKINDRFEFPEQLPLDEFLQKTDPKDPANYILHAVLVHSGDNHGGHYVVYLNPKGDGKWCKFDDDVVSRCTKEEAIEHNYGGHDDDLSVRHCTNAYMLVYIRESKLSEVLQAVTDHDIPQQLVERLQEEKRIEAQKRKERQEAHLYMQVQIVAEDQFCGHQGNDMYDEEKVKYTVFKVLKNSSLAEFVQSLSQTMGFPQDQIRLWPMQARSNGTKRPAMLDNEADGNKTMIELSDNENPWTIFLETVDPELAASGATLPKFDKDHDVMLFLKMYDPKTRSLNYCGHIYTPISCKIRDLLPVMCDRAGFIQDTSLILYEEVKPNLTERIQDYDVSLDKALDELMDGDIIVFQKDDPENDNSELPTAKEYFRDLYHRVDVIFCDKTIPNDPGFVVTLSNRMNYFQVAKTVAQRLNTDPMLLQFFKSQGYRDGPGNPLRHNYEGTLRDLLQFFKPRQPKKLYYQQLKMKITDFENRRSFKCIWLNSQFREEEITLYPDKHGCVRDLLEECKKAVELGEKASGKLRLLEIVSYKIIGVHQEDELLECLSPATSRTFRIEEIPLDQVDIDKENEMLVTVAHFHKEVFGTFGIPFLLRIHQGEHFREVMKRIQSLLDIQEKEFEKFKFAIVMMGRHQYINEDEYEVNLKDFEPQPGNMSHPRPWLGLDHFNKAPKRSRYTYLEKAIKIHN

`C[C@H](CC(=O)N1CCC(O)(Cn2cnc3cc(NC(=O)CCN4CCN(C)CC4)ccc3c2=O)CC1)c1ccccc1`: the half-maximal inhibitory concentration (IC50) (commonly the concentration needed to halve the response being measured) amounted to 90 nM.
